According to PubChem BioAssay AID1963970 (Molecular Pharmacology Branch, DTP, NCI, 2024):
Values joined by “and” are separate entries in the source; they are usually repeats but may differ in a detail not shown here. Identical values can stand only once.

Tested on: 931267-113-T-J1-PDC multicell spheroid viability
Experiment: Anticancer human tumor 931267-113-T-J1-PDC patient-derived colon adenocarcinoma cell line growth inhibition [PI3K]
Settings: for viability, T/C: stronger effect = lower value
In short: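 Three cell types, namely tumor cells, endothelial cells and mesenchymal stem cells, formed each spheroid. Combinations with four PI3K inhibitors were screened at clinically achievable concentrations decreasing by half-log, and spheroid viability was recorded.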

[1] = curve of first compound, second compound 0.00316 µM
[2] = curve of first compound, second compound 0.01 µM
[3] = curve of first compound, second compound 0.0316 µM
[4] = curve of first compound, second compound 0.1 µM
[5] = curve of first compound, second compound 0.316 µM
[6] = curve of first compound, second compound 1 µM
[7] = second compound 0.0316 µM, first compound 0.0316 µM
[8] = second compound 0.0316 µM, first compound 0.1 µM
[9] = second compound 0.0316 µM, first compound 0.316 µM
[10] = second compound 0.0316 µM, first compound 1 µM
[11] = second compound 0.0316 µM, first compound 3.16 µM
[12] = second compound 0.0316 µM, first compound 10 µM
[13] = second compound 0.1 µM, first compound 0.0316 µM
[14] = second compound 0.1 µM, first compound 0.1 µM
[15] = second compound 0.1 µM, first compound 0.316 µM
[16] = second compound 0.1 µM, first compound 1 µM
[17] = second compound 0.1 µM, first compound 3.16 µM
[18] = second compound 0.1 µM, first compound 10 µM
[19] = second compound 0.316 µM, first compound 0.0316 µM
[20] = second compound 0.316 µM, first compound 0.1 µM
[21] = second compound 0.316 µM, first compound 0.316 µM
[22] = second compound 0.316 µM, first compound 1 µM
[23] = second compound 0.316 µM, first compound 3.16 µM
[24] = second compound 0.316 µM, first compound 10 µM
[25] = second compound 1 µM, first compound 0.0316 µM
[26] = second compound 1 µM, first compound 0.1 µM
[27] = second compound 1 µM, first compound 0.316 µM
[28] = second compound 1 µM, first compound 1 µM
[29] = second compound 1 µM, first compound 3.16 µM
[30] = second compound 1 µM, first compound 10 µM
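Further: viability read 7 days after compound addition.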

SMILES: Cn1cnc2c(F)c(Nc3ccc(Br)cc3Cl)c(C(=O)NOCCO)cc21 + CC(Nc1ccc2c(c1)OCCn1cc(N3C(=O)OCC3C(F)F)nc1-2)C(N)=O
- IC50 [1]: 119 nM
- IC50 [2]: 99.7 nM
- IC50 [3]: 80.1 nM
- IC50 [4]: 54.6 nM
- IC50 [5]: 36.4 nM
- IC50 [6]: 19.8 nM
- viability, T/C (second compound 0.00316 µM, first compound 0.00949 µM): 69.8%
- viability, T/C (second compound 0.00316 µM, first compound 0.03 µM): 71.2%
- viability, T/C (second compound 0.00316 µM, first compound 0.0949 µM): 52.1%
- viability, T/C (second compound 0.00316 µM, first compound 0.3 µM): 33.3%
- viability, T/C (second compound 0.00316 µM, first compound 0.949 µM): 21.4%
- viability, T/C (second compound 0.00316 µM, first compound 3 µM): 11.4%
- viability, T/C (second compound 0.01 µM, first compound 0.00949 µM): 91.1%
- viability, T/C (second compound 0.01 µM, first compound 0.03 µM): 74.7%
- viability, T/C (second compound 0.01 µM, first compound 0.0949 µM): 50%
- viability, T/C (second compound 0.01 µM, first compound 0.3 µM): 31%
- viability, T/C (second compound 0.01 µM, first compound 0.949 µM): 15.3%
- viability, T/C (second compound 0.01 µM, first compound 3 µM): 10.8%
- viability, T/C (second compound 0.0316 µM, first compound 0.00949 µM): 89.6%
- viability, T/C (second compound 0.0316 µM, first compound 0.03 µM): 69.5%
- viability, T/C (second compound 0.0316 µM, first compound 0.0949 µM): 47.9%
- viability, T/C (second compound 0.0316 µM, first compound 0.3 µM): 25.2%
- viability, T/C (second compound 0.0316 µM, first compound 0.949 µM): 15.2%
- viability, T/C (second compound 0.0316 µM, first compound 3 µM): 9.45%
- viability, T/C (second compound 0.1 µM, first compound 0.00949 µM): 75.9%
- viability, T/C (second compound 0.1 µM, first compound 0.03 µM): 61.8%
- viability, T/C (second compound 0.1 µM, first compound 0.0949 µM): 39.3%
- viability, T/C (second compound 0.1 µM, first compound 0.3 µM): 21.3%
- viability, T/C (second compound 0.1 µM, first compound 0.949 µM): 15.2%
- viability, T/C (second compound 0.1 µM, first compound 3 µM): 8.34%
- viability, T/C (second compound 0.316 µM, first compound 0.00949 µM): 78.3%
- viability, T/C (second compound 0.316 µM, first compound 0.03 µM): 53.9%
- viability, T/C (second compound 0.316 µM, first compound 0.0949 µM): 31.3%
- viability, T/C (second compound 0.316 µM, first compound 0.3 µM): 17.2%
- viability, T/C (second compound 0.316 µM, first compound 0.949 µM): 10.9%
- viability, T/C (second compound 0.316 µM, first compound 3 µM): 6.16%
- viability, T/C (second compound 1 µM, first compound 0.00949 µM): 63.1%
- viability, T/C (second compound 1 µM, first compound 0.03 µM): 42%
- viability, T/C (second compound 1 µM, first compound 0.0949 µM): 28.7%
- viability, T/C (second compound 1 µM, first compound 0.3 µM): 15.9%
- viability, T/C (second compound 1 µM, first compound 0.949 µM): 10.3%
- viability, T/C (second compound 1 µM, first compound 3 µM): 4.28%

SMILES: Cn1ncc(Cl)c1-c1cc(C(=O)NC(CN)Cc2cccc(F)c2)sc1Cl (configuration not stated)
- viability, T/C (compound 0.0316 µM): 105% [middle of 4 runs]
- viability, T/C (compound 0.1 µM): 98.2% [middle of 4 runs]
- viability, T/C (compound 0.316 µM): 96.1% [middle of 4 runs]
- viability, T/C (compound 1 µM): 87.7% [middle of 4 runs]
- viability, T/C (compound 3.16 µM): 77.1% [middle of 4 runs]
- viability, T/C (compound 10 µM): 39.5% [middle of 4 runs]
- IC50 (curve of compound): 7.22 µM [middle of 4 runs]

SMILES: CC(Nc1ccc2c(c1)OCCn1cc(N3C(=O)OCC3C(F)F)nc1-2)C(N)=O (configuration not stated)
- viability, T/C (compound 0.00316 µM): 99.8% [middle of 8 runs]
- viability, T/C (compound 0.01 µM): 100% [middle of 8 runs]
- viability, T/C (compound 0.0316 µM): 96.4% [middle of 8 runs]
- viability, T/C (compound 0.1 µM): 83.7% [middle of 8 runs]
- viability, T/C (compound 0.316 µM): 86% [middle of 8 runs]
- viability, T/C (compound 1 µM): 83.1% [middle of 8 runs]
- IC50 (compound alone, run of 05/08/2023): > 1000 nM

SMILES: Cn1cnc2c(F)c(Nc3ccc(Br)cc3Cl)c(C(=O)NOCCO)cc21
- viability, T/C (compound 0.00949 µM): 89.7% [middle of 4 runs]
- viability, T/C (compound 0.03 µM): 67.5% [middle of 4 runs]
- viability, T/C (compound 0.0949 µM): 53.3% [middle of 4 runs]
- viability, T/C (compound 0.3 µM): 35.9% [middle of 4 runs]
- viability, T/C (compound 0.949 µM): 22.4% [middle of 4 runs]
- viability, T/C (compound 3 µM): 12.2% (2×) and 12.7% and 13.3%
- IC50 (curve of compound): 118 nM [middle of 4 runs]

SMILES: CNC(=O)c1ccc(N2C(=S)N(c3ccc(C#N)c(C(F)(F)F)c3)C(=O)C2(C)C)cc1F + CC(Nc1ccc2c(c1)OCCn1cc(N3C(=O)OCC3C(F)F)nc1-2)C(N)=O
- IC50 [1]: > 10000 nM
- IC50 [2]: > 10000 nM
- IC50 [3]: > 10000 nM
- IC50 [4]: > 10000 nM
- IC50 [5]: > 10000 nM
- IC50 [6]: > 10000 nM
- viability, T/C (second compound 0.00316 µM, first compound 0.0316 µM): 99%
- viability, T/C (second compound 0.00316 µM, first compound 0.1 µM): 102%
- viability, T/C (second compound 0.00316 µM, first compound 0.316 µM): 85.9%
- viability, T/C (second compound 0.00316 µM, first compound 1 µM): 111%
- viability, T/C (second compound 0.00316 µM, first compound 3.16 µM): 119%
- viability, T/C (second compound 0.00316 µM, first compound 10 µM): 106%
- viability, T/C (second compound 0.01 µM, first compound 0.0316 µM): 107%
- viability, T/C (second compound 0.01 µM, first compound 0.1 µM): 93.2%
- viability, T/C (second compound 0.01 µM, first compound 0.316 µM): 107%
- viability, T/C (second compound 0.01 µM, first compound 1 µM): 106%
- viability, T/C (second compound 0.01 µM, first compound 3.16 µM): 99.8%
- viability, T/C (second compound 0.01 µM, first compound 10 µM): 109%
- viability, T/C [7]: 97.2%
- viability, T/C [8]: 90.2%
- viability, T/C [9]: 96.4%
- viability, T/C [10]: 90.1%
- viability, T/C [11]: 95.1%
- viability, T/C [12]: 87.6%
- viability, T/C [13]: 98.4%
- viability, T/C [14]: 88.5%
- viability, T/C [15]: 92.2%
- viability, T/C [16]: 81.9%
- viability, T/C [17]: 91.9%
- viability, T/C [18]: 77.6%
- viability, T/C [19]: 82%
- viability, T/C [20]: 78.9%
- viability, T/C [21]: 77%
- viability, T/C [22]: 76.1%
- viability, T/C [23]: 79.8%
- viability, T/C [24]: 70%
- viability, T/C [25]: 76.3%
- viability, T/C [26]: 67.9%
- viability, T/C [27]: 75.5%
- viability, T/C [28]: 70%
- viability, T/C [29]: 71.2%
- viability, T/C [30]: 54.7%

SMILES: CC1(C)CCC(Nc2ncc(C(F)(F)F)c(-c3c[nH]c4c(P(C)(C)=O)c(C#N)ccc34)n2)CN1 (configuration not stated) + CC(Nc1ncnc2nc[nH]c12)c1cc2cccc(Cl)c2c(=O)n1-c1ccccc1
- IC50 [3]: > 10000 nM
- IC50 [4]: > 10000 nM
- IC50 [5]: > 10000 nM
- IC50 [6]: > 10000 nM
- IC50 (curve of first compound, second compound 3.16 µM): > 10000 nM
- IC50 (curve of first compound, second compound 10 µM): > 10000 nM
- viability, T/C [7]: 107%
- viability, T/C [8]: 105%
- viability, T/C [9]: 97%
- viability, T/C [10]: 88.5%
- viability, T/C [11]: 90.8%
- viability, T/C [12]: 74.1%
- viability, T/C [13]: 114%
- viability, T/C [14]: 105%
- viability, T/C [15]: 93.6%
- viability, T/C [16]: 93.1%
- viability, T/C [17]: 91.5%
- viability, T/C [18]: 81.6%
- viability, T/C [19]: 104%
- viability, T/C [20]: 104%
- viability, T/C [21]: 103%
- viability, T/C [22]: 92.8%
- viability, T/C [23]: 95.1%
- viability, T/C [24]: 67.4%
- viability, T/C [25]: 106%
- viability, T/C [26]: 100%
- viability, T/C [27]: 94.6%
- viability, T/C [28]: 82.7%
- viability, T/C [29]: 96.5%
- viability, T/C [30]: 69.5%
- viability, T/C (second compound 3.16 µM, first compound 0.0316 µM): 106%
- viability, T/C (second compound 3.16 µM, first compound 0.1 µM): 100%
- viability, T/C (second compound 3.16 µM, first compound 0.316 µM): 89.4%
- viability, T/C (second compound 3.16 µM, first compound 1 µM): 87%
- viability, T/C (second compound 3.16 µM, first compound 3.16 µM): 82.6%
- viability, T/C (second compound 3.16 µM, first compound 10 µM): 69.5%
- viability, T/C (second compound 10 µM, first compound 0.0316 µM): 92.2%
- viability, T/C (second compound 10 µM, first compound 0.1 µM): 97%
- viability, T/C (second compound 10 µM, first compound 0.316 µM): 80.1%
- viability, T/C (second compound 10 µM, first compound 1 µM): 82.5%
- viability, T/C (second compound 10 µM, first compound 3.16 µM): 83.1%
- viability, T/C (second compound 10 µM, first compound 10 µM): 56.2%
